Experimental data: article PMC4979471 (Cell Death Discovery, 2015)
Read-outs that look alike come from different tables or passages of the source.

How the values were obtained:
Assay in all cases: Kinase selectivity, P33-radiolabeled assay
Type in all cases: biochemical
Aurora C = target: T1, Aurora C (Homo sapiens, UniProt Q9UQB9); settings: 10 μM ATP
T1 construct: purchased Reaction Biology Corp
T1 sequence (Q9UQB9 1-309): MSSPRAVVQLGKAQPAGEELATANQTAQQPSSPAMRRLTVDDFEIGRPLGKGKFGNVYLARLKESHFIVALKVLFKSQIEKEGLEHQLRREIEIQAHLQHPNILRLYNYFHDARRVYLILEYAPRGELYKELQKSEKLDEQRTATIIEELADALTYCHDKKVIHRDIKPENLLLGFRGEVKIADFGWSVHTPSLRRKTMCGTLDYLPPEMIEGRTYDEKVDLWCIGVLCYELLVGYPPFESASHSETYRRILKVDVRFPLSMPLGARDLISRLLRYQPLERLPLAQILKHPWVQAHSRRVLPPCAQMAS
Method in brief: (§1)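 Activity relative to DMSO controls (%) was measured for compound at 10 μM. Assays ran at 10 μM ATP, in duplicate.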

CAMKK1 = target: T2, CAMKK1 (Homo sapiens, UniProt Q8N5S9); settings: 10 μM ATP
T2 construct: purchased Reaction Biology Corp
T2 sequence (Q8N5S9 whole entry): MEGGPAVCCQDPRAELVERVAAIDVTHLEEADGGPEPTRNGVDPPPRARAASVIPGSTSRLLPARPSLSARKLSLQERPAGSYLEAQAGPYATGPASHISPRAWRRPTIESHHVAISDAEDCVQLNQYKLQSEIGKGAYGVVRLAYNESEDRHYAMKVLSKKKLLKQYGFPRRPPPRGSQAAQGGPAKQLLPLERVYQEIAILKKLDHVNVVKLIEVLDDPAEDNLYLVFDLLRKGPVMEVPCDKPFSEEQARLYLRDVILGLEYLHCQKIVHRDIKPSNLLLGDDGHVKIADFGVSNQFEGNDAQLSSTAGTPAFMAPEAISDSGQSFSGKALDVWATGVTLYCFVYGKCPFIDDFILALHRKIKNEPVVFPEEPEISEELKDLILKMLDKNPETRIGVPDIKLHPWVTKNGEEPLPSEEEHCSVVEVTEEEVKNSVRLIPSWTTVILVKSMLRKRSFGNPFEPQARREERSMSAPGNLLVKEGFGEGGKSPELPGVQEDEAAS
Method in brief: as §1

CDK2/cyclin A = target: T3, CDK2/cyclin A (Homo sapiens, UniProt P24941); settings: 10 μM ATP
T3 construct: purchased Reaction Biology Corp
Method in brief: as §1

GRK3 = target: T4, GRK3 (Homo sapiens, UniProt P35626); settings: 10 μM ATP
T4 construct: purchased Reaction Biology Corp
T4 sequence (P35626 1-688): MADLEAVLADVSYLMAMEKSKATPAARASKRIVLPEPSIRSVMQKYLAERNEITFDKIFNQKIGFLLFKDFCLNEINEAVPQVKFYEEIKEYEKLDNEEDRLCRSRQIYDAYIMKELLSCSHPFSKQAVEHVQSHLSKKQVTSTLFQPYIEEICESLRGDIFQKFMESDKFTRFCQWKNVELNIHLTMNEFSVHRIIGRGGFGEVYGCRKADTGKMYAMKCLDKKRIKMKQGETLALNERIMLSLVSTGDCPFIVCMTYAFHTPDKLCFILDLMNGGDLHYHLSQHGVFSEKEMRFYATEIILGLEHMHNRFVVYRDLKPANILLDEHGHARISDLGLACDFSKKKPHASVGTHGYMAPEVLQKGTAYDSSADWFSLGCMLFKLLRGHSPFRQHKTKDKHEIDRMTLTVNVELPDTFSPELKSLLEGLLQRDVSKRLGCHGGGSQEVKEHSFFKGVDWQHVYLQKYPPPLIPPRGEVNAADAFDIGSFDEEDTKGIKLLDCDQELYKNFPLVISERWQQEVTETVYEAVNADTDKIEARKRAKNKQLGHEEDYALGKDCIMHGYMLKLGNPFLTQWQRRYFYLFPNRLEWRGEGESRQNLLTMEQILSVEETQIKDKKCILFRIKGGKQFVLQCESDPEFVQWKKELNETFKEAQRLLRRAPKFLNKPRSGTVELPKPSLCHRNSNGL
Method in brief: as §1

PKCepsilon = target: T5, PKCepsilon (Homo sapiens, UniProt Q02156); settings: 10 μM ATP
T5 construct: purchased Reaction Biology Corp
T5 sequence (Q02156 1-737): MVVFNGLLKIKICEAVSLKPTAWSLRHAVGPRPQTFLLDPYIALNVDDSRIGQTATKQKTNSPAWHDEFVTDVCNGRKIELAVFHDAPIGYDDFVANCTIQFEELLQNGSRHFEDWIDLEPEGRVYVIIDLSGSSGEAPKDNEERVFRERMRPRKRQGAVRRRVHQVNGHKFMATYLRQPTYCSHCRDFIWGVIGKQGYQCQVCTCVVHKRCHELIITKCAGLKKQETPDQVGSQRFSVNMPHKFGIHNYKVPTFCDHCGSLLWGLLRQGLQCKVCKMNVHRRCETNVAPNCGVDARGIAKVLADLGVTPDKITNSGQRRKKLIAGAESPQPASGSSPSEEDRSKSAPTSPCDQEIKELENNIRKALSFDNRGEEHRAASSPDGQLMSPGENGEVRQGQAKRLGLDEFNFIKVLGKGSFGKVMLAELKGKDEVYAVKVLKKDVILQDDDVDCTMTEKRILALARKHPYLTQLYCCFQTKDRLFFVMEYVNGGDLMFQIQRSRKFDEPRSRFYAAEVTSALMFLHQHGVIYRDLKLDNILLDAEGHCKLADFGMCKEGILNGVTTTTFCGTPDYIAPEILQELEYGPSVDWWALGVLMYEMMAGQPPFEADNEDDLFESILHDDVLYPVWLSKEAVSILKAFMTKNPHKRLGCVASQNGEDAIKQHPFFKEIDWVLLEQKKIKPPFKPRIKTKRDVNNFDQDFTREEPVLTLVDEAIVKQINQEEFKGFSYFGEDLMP
Method in brief: as §1

ROS/ROS1 = target: T6, ROS/ROS1 (Homo sapiens, UniProt P08922)
T6 construct: purchased Reaction Biology Corp
T6 sequence (P08922 28-2347): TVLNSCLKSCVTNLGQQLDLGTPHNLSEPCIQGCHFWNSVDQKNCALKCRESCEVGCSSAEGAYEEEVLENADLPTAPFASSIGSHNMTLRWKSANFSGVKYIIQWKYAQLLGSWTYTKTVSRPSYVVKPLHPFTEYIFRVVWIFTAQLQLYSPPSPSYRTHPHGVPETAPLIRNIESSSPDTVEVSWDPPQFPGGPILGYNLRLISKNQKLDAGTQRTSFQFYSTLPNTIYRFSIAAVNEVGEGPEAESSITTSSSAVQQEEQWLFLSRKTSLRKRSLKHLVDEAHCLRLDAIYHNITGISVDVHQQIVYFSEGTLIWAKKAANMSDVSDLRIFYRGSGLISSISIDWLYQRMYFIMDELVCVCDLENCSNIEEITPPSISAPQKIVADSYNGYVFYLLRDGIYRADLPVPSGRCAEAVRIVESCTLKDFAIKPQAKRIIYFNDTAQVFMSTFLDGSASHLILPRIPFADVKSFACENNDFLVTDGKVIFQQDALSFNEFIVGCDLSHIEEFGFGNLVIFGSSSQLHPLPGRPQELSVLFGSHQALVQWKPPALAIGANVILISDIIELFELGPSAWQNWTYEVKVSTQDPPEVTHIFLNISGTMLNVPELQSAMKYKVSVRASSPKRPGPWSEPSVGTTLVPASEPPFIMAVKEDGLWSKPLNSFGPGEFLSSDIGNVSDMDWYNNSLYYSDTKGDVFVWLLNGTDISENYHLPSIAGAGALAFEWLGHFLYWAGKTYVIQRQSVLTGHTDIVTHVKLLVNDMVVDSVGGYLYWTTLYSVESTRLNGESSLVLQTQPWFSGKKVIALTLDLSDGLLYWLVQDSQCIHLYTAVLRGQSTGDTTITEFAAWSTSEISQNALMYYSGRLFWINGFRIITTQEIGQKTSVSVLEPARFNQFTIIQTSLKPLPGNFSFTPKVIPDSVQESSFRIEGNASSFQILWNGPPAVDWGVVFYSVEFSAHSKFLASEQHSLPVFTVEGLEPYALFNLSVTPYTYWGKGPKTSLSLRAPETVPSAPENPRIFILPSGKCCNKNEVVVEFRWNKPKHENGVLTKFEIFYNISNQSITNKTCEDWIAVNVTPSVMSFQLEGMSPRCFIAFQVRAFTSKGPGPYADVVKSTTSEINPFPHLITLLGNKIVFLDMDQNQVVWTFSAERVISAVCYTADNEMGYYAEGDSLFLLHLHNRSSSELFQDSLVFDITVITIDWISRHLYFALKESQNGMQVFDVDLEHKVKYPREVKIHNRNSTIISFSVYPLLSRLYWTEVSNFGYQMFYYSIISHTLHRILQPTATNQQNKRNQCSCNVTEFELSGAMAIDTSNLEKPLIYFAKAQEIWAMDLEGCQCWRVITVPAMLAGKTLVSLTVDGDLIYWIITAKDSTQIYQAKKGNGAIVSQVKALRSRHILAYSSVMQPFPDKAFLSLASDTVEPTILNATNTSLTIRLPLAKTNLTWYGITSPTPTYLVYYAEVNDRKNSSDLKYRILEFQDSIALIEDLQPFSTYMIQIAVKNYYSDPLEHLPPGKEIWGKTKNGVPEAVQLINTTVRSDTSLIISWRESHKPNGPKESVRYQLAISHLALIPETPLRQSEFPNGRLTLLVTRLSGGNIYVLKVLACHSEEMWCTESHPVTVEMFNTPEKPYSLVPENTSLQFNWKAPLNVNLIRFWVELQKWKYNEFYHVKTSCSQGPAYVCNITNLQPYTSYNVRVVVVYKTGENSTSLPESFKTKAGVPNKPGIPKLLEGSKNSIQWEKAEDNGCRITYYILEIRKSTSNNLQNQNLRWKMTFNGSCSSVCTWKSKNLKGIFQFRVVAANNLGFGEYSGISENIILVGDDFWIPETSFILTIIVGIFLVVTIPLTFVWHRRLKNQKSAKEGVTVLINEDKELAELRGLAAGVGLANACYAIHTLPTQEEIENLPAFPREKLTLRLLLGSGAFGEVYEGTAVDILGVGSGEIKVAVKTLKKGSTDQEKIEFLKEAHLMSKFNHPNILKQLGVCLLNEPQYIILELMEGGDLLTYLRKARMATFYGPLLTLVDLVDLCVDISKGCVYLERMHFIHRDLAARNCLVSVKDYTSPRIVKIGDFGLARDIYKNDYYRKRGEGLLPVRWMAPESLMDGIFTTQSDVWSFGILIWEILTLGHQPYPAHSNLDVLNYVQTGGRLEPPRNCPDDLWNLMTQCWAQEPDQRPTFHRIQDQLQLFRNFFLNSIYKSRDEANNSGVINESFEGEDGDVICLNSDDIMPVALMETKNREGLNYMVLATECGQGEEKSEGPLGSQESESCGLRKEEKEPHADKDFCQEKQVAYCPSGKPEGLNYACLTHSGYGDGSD
Method in brief: as §1

SNARK/NUAK2 = target: T7, SNARK/NUAK2 (Homo sapiens, UniProt Q9H093); settings: 10 μM ATP
T7 construct: purchased Reaction Biology Corp
T7 sequence (Q9H093 1-628): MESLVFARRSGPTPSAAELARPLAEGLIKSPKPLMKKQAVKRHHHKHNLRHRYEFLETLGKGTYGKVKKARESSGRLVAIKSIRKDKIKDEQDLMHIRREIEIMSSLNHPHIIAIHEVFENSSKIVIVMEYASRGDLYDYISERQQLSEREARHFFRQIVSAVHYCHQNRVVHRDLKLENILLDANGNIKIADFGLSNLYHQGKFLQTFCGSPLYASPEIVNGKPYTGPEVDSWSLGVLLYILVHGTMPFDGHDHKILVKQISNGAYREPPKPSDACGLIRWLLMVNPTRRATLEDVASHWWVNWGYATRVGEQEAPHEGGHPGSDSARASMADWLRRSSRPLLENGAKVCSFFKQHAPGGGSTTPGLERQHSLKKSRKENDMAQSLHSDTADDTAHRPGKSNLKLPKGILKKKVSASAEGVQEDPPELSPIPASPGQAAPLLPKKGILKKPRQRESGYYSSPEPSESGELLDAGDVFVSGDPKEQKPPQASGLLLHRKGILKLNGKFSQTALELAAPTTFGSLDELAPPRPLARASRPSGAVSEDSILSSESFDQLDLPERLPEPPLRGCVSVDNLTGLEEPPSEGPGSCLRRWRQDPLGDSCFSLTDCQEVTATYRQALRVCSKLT
Method in brief: as §1

[1] = read-out: % Enzyme Activity (relative to DMSO controls) AVG
[2] = read-out: % Enzyme Activity (relative to DMSO controls) Data 1
[3] = read-out: % Enzyme Activity (relative to DMSO controls) Data 2

CC(C)(C)C(=O)N1N=CC[C@H]1c1ccccc1 [GSK′963]
remaining activity at 10 µM (Aurora C; [1]): 96.9% | remaining activity at 10 µM (Aurora C; [2]): 98.4% | remaining activity at 10 µM (Aurora C; [3]): 95.5% | remaining activity at 10 µM (CAMKK1; [1]): 103% | remaining activity at 10 µM (CAMKK1; [2]): 105% | remaining activity at 10 µM (CAMKK1; [3]): 101% | remaining activity at 10 µM (CDK2/cyclin A; [1]): 93.6% | remaining activity at 10 µM (CDK2/cyclin A; [2]): 95.3% | remaining activity at 10 µM (CDK2/cyclin A; [3]): 92% | remaining activity at 10 µM (GRK3; [1]): 97.9% | remaining activity at 10 µM (GRK3; [2]): 98.1% | remaining activity at 10 µM (GRK3; [3]): 97.6% | remaining activity at 10 µM (PKCepsilon; [1]): 105% | remaining activity at 10 µM (PKCepsilon; [2]): 103% | remaining activity at 10 µM (PKCepsilon; [3]): 106% | remaining activity at 10 µM (ROS/ROS1; 10 uM, 10 μM ATP, read-out: % Enzyme Activity (relative to DMSO controls) Data 1): 102% | remaining activity at 10 µM (ROS/ROS1; 10 uM, 10 μM ATP, read-out: % Enzyme Activity (relative to DMSO controls) Data 2): 100% | remaining activity at 10 µM (ROS/ROS1; [1]): 101% | remaining activity at 10 µM (SNARK/NUAK2; [1]): 99.1% | remaining activity at 10 µM (SNARK/NUAK2; [2]): 99.2% | remaining activity at 10 µM (SNARK/NUAK2; [3]): 99%
